The text below walks through data of ChEMBL document CHEMBL1145401, “Design and synthesis of classical and nonclassical 6-arylthio-2,4-diamino-5-ethylpyrrolo[2,3-d]pyrimidines as antifolates” (J Med Chem, 2007).

Experiment [1] addresses T1, Bifunctional dihydrofolate reductase-thymidylate synthase (Toxoplasma gondii, UniProt Q07422).
T1 sequence (Q07422 whole entry): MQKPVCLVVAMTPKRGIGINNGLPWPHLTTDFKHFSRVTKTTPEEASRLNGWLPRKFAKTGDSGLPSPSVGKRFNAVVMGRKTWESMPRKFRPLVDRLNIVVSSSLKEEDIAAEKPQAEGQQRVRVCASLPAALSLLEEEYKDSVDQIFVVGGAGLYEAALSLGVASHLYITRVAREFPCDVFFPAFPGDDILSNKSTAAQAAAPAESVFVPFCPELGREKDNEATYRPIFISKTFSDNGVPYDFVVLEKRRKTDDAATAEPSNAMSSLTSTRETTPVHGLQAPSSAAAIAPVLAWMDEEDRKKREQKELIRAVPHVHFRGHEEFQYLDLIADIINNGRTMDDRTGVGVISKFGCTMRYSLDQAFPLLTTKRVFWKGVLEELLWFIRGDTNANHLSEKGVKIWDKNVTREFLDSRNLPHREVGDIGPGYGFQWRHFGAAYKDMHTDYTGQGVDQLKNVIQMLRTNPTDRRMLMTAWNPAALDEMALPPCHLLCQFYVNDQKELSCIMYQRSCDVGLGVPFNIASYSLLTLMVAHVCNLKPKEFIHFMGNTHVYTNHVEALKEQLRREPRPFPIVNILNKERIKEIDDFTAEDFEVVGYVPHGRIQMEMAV
Description: Inhibition of Toxoplasma gondii DHFR

The target of experiment [2] is T2, Dihydrofolate reductase (Mycobacterium avium, UniProt O30463).
T2 sequence (O30463 whole entry): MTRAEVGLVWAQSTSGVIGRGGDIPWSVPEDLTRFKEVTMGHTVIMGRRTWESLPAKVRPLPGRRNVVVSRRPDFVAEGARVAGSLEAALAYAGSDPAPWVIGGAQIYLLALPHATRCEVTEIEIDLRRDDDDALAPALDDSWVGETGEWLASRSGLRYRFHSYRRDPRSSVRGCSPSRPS
Description: Inhibition of Mycobacterium avium DHFR

A short description of experiment [3]: Selectivity ratio of IC50 for rat liver DHFR to IC50 for Mycobacterium avium DHFR.
The nature of experiment [4]: Selectivity ratio of IC50 for rat liver DHFR to IC50 for Pneumocystis carinii DHFR.
Experiment [5] concerns the target T3, Dihydrofolate reductase (Rattus norvegicus, UniProt Q920D2).
T3 sequence (Q920D2 whole entry): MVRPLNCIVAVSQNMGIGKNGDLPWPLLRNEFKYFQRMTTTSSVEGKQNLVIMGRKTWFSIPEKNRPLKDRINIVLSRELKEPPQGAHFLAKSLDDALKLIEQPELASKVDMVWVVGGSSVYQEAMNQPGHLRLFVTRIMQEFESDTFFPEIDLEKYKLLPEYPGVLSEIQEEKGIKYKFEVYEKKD
Description: Inhibition of rat liver DHFR

For experiment [6], the target named is T4, Dihydrofolate reductase (Pneumocystis carinii, UniProt P16184).
T4 sequence (P16184 whole entry): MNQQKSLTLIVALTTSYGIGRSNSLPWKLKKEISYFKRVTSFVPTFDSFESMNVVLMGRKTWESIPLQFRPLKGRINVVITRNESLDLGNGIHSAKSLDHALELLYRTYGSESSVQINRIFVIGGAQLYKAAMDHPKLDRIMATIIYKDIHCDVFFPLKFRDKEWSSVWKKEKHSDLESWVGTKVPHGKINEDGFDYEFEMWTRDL
Description: Inhibition of Pneumocystis carinii DHFR

Experiment [7] addresses T5, Dihydrofolate reductase (Homo sapiens, UniProt P00374). Kind of experiment: Inhibition of human DHFR relative to control. The conditions noted are these: concentration not given here.
The target of experiment [8] is T5, Dihydrofolate reductase.
Experiment [9] can be described thus: Selectivity ratio of IC50 for human DHFR to IC50 for Escherichia coli DHFR.
Experiment [10] in a line: Inhibition of Escherichia coli DHFR.
Experiment [11] concerns the target Dihydrofolate reductase (Pneumocystis carinii) (UniProt P16184). The conditions noted are these: 20 uM.
Description: Inhibition of Pneumocystis carinii DHFR at 20 uM
Another experiment relates to RPMI-8226. Description: Cytotoxicity against RPMI8226 cells. The format is functional. The conditions noted are these: Homo sapiens.
The test system of a further experiment is NCI-H460. Description: Cytotoxicity against NCI-H460 cells. The settings on record: Homo sapiens. In kind it is functional.
The test system of the next experiment is SR. Description: Cytotoxicity against SR cells. The settings on record: Homo sapiens. In kind it is functional.
The next experiment concerns MOLT-4. Description: Cytotoxicity against MOLT4 cells. The format is functional. The conditions noted are these: Homo sapiens.
Experiment [12] relates to CCRF-CEM. Description: Cytotoxicity against CCRF-CEM cells. The format is functional. The conditions noted are these: Homo sapiens.
For a further experiment, the system named is U-251. Description: Cytotoxicity against U251 cells. In kind it is functional. The conditions noted are these: Homo sapiens.
A further experiment concerns HT-29. Kind of experiment: Cytotoxicity against HT29 cells. In kind it is functional. The conditions noted are these: Homo sapiens.
The subject of the next experiment is K562. Description: Cytotoxicity against K562 cells. In kind it is functional. The conditions noted are these: Homo sapiens.
Another experiment deals with SW-620. Description: Cytotoxicity against SW620 cells. The format is functional. The settings on record: Homo sapiens.
A further experiment has as its system PC-3. Kind of experiment: Cytotoxicity against PC3 cells. In kind it is functional. The conditions noted are these: Homo sapiens.
The next experiment deals with LOX IMVI. Kind of experiment: Cytotoxicity against LOX IMVI cells. The conditions noted are these: Homo sapiens. The format is functional.
Experiment [13] concerns CCRF-CEM. Kind of experiment: Effect on growth of human CCRF-CEM cells at 40 nM in presence of 10 uM deoxycytidine, 5 uM thymidine relative to control. The format is functional.
In experiment [14] the test system is CCRF-CEM. Description: Effect on growth of human CCRF-CEM cells at 40 nM in presence of 10 uM deoxycytidine, 10 uM hypoxanthine relative to control. The format is functional.
Experiment [15] has as its system CCRF-CEM. Description: Effect on growth of human CCRF-CEM cells at 40 nM in presence of 10 uM deoxycytidine, 5 uM thymidine and 10 uM hypoxanthine relative to control. The format is functional.
The subject of experiment [16] is CCRF-CEM. Kind of experiment: Effect on growth of human CCRF-CEM cells at 40 nM in presence of 10 uM deoxycytidine relative to control. The format is functional.

As to `Cc1c(Sc2ccc3ccccc3c2)[nH]c2nc(N)nc(N)c12`, the IC50 in [1] came out at 0.16 µM; at Dihydrofolate reductase [2], 0.7 µM. Moreover, the Ratio IC50 in experiment [3] is 6.5; in experiment [4] it was 0.1.
For `CCc1c(Sc2cccc(OC)c2)[nH]c2nc(N)nc(N)c12`, the IC50 was 31 µM at Dihydrofolate reductase [5]; 28.3 µM on Dihydrofolate reductase [6]; 1.09 µM in [1]; over 32 µM against Dihydrofolate reductase [8]; 0.77 µM on Dihydrofolate reductase [2]; 0.32 µM in experiment [10]. Also, the inhibition at Dihydrofolate reductase [7] turned out to be 35%. Also, the values for the Ratio IC50 in experiment [9], in experiment [3] and in experiment [4] were over 100, 40.5 and 1.1, respectively.
As for `CCc1c(Sc2cccc3cccnc23)[nH]c2nc(N)nc(N)c12`, the IC50 against Dihydrofolate reductase [5] was determined as 3.55 µM; on Dihydrofolate reductase [6], 9.58 µM; on Dihydrofolate reductase [8], 1.4 µM; at Dihydrofolate reductase [2], 0.11 µM.
For the molecule `CCc1c(Sc2ccc(Cl)cc2)[nH]c2nc(N)nc(N)c12`, the half-maximal inhibitory concentration (IC50) against Dihydrofolate reductase [5] is 5.48 µM; against Dihydrofolate reductase [6] it was 11.9 µM; in experiment [1], 1.54 µM; on Dihydrofolate reductase [8] it was over 31 µM; against Dihydrofolate reductase [2] it was 0.7 µM. This molecule returned an inhibition against Dihydrofolate reductase [7] of 36%. The values for the Ratio IC50 in [3] and in [4] were 7.8 and 0.5, respectively.
Turning to `CCc1c(Sc2ccc([N+](=O)[O-])cc2)[nH]c2nc(N)nc(N)c12`, the IC50 on Dihydrofolate reductase [5] came out at 3.2 µM; against Dihydrofolate reductase [6], 8.68 µM; in experiment [1], 0.32 µM; on Dihydrofolate reductase [8], 5.8 µM; against Dihydrofolate reductase [2], 0.37 µM; in [10], 0.09 µM. The Ratio IC50 stood at 64.4 in [9], 8.6 in [3] and 0.4 in [4].
Turning to `Cc1c(Sc2ccc(Cl)c(Cl)c2)[nH]c2nc(N)nc(N)c12`, the values for the IC50 (against Dihydrofolate reductase [5]; in experiment [1]; against Dihydrofolate reductase [2]) were 110 µM, 20 µM and 19 µM, respectively. Besides, in experiment [11], the inhibition amounted to 14%. The Ratio IC50 in experiment [3] was 5.8; in experiment [4] it was 9.1.
Turning to `Cc1nc(N)c2c(C)c(Sc3ccc(C(=O)N[C@@H](CCC(=O)O)C(=O)O)cc3)[nH]c2n1`, the GI50 in the experiment with RPMI-8226 was under 0.01 µM; in the experiment with NCI-H460 it was 0.63 µM; with SR, over 0.1 µM; with MOLT-4 it was under 0.01 µM; in the experiment with CCRF-CEM [12], 0.22 µM; in the experiment with U-251, 0.82 µM. In addition, the GI50 with HT-29 was 0.16 µM; with K562, 0.027 µM; in the experiment on SW-620, 0.12 µM; with PC-3, 0.44 µM; in the experiment with LOX IMVI, 0.17 µM.
As for `CCc1c(Sc2c(Cl)cccc2Cl)[nH]c2nc(N)nc(N)c12`, the IC50 at Dihydrofolate reductase [5] is 4 µM; at Dihydrofolate reductase [6] it was 20.6 µM; in [1], 3.8 µM; against Dihydrofolate reductase [8], over 28 µM; against Dihydrofolate reductase [2], 12 µM. The molecule also showed an inhibition against Dihydrofolate reductase [7] of 30%. Besides, the Ratio IC50 in [3] was 0.33; in experiment [4], 0.2.
Regarding `CCc1c(Sc2ccc(Br)cc2)[nH]c2nc(N)nc(N)c12`, the IC50 is 10.1 µM against Dihydrofolate reductase [5]; 26.6 µM against Dihydrofolate reductase [6]; 11.6 µM in [1]; 2.7 µM against Dihydrofolate reductase [8]; 7.4 µM on Dihydrofolate reductase [2]; 0.14 µM in experiment [10]. Further, the Ratio IC50 in experiment [9] came out at 19.3; in experiment [3], 1.4; in experiment [4] it was 0.4.
As to `CCc1c(Sc2ccc(OC)cc2)[nH]c2nc(N)nc(N)c12`, the IC50 against Dihydrofolate reductase [5] was found to be 31.8 µM; against Dihydrofolate reductase [6] it was 53 µM; in experiment [1], 4.62 µM; at Dihydrofolate reductase [8], 2.9 µM; at Dihydrofolate reductase [2] it was 3.07 µM.
For the molecule `CCc1c(Sc2cc(OC)ccc2OC)[nH]c2nc(N)nc(N)c12`, the concentration for half-maximal inhibition (IC50) is 0.12 µM in experiment [1] and 5.8 µM against Dihydrofolate reductase [8].
For `CCc1c(Sc2ccccc2)[nH]c2nc(N)nc(N)c12`, the values for the half-maximal inhibitory concentration (IC50) (in experiment [1]; against Dihydrofolate reductase [8]) were 0.18 µM and 18 µM, respectively.
Take `CCc1c(Sc2ccc3ccccc3c2)[nH]c2nc(N)nc(N)c12`: the IC50 against Dihydrofolate reductase [5] amounted to 8.62 µM; against Dihydrofolate reductase [6], 13.9 µM; in experiment [1], 5.12 µM; against Dihydrofolate reductase [8] it was 6 µM; against Dihydrofolate reductase [2], 6.52 µM.
On to `CCc1c(Sc2ccc(Cl)cc2Cl)[nH]c2nc(N)nc(N)c12`, for which the IC50 at Dihydrofolate reductase [5] stood at 1.17 µM; against Dihydrofolate reductase [6] it was 7.19 µM; in [1] it was 0.22 µM; against Dihydrofolate reductase [8], 1.4 µM; against Dihydrofolate reductase [2] it was 0.35 µM; in experiment [10], 0.14 µM. For the same molecule, the Ratio IC50 in [9] was 10; in experiment [3], 3.3; in experiment [4], 0.2.
In the case of `CN(Cc1cnc2nc(N)nc(N)c2n1)c1ccc(C(=O)N[C@@H](CCC(=O)O)C(=O)O)cc1` [METHOTREXATE], the Activity was 13% with CCRF-CEM [13], 14% with CCRF-CEM [14], 74% in the experiment on CCRF-CEM [15] and 11% with CCRF-CEM [16].
The molecule `COc1ccc(Sc2[nH]c3nc(N)nc(N)c3c2C)cc1` registered an IC50 against Dihydrofolate reductase [2] of 0.69 µM.
Consider `CCc1c(Sc2c(C)cccc2C)[nH]c2nc(N)nc(N)c12`, for which the IC50 was found to be 10.1 µM at Dihydrofolate reductase [5], 30.2 µM against Dihydrofolate reductase [6], 7.1 µM in experiment [1] and 18.4 µM against Dihydrofolate reductase [2].
As to `CCc1c(Sc2cccc3ccccc23)[nH]c2nc(N)nc(N)c12`, the IC50 against Dihydrofolate reductase [5] was found to be 40.1 µM; against Dihydrofolate reductase [6], 18.4 µM; in experiment [1], 3.15 µM; on Dihydrofolate reductase [8], 2.9 µM; against Dihydrofolate reductase [2] it was 19.8 µM.
As for `CCc1c(Sc2cccc(Cl)c2)[nH]c2nc(N)nc(N)c12`, the half-inhibitory concentration (IC50) is 6.33 µM at Dihydrofolate reductase [5]; 4.02 µM against Dihydrofolate reductase [6]; 0.5 µM in experiment [1]; over 31 µM against Dihydrofolate reductase [8]; 0.42 µM on Dihydrofolate reductase [2]; 0.16 µM in experiment [10]. Moreover, the inhibition at Dihydrofolate reductase [7] is 30%. Also, the Ratio IC50 in experiment [9] was over 194; in experiment [3] it was 15.1; in experiment [4], 1.6.

Usually IC50 stands for the concentration that gives 50% inhibition. A higher IC50 goes with weaker potency. In general, inhibition refers to how much of the control response was suppressed. What is called GI50 is the concentration that inhibits growth by half. Low readings indicate greater sensitivity of the cells, high ones lower sensitivity of the cells.
